Results as given in ChEMBL document CHEMBL1201862, “PubChem BioAssay data set” (2004).
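1) Cells in 96-well plates. 2) Compound, 48 h, 5 concentrations. 3) Linear interpolation between surrounding doses. 4) Unreached endpoint = highest concentration. GI50 marks 50% less growth.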 Active and inactive are the calls of the source. Cut-off read from the data, not from the text of the source: active = GI50 up to about 1.1 µM and inactive = higher.

Key:
Experiment in all cases: NCI-60 cell line screen, 48 h
SK-MEL-28 = system: SK-MEL-28
SN12C = system: SN12C
RXF 393 = system: RXF 393
SR = system: SR
HT-29 = system: HT-29
SF-268 = system: SF-268
BT-549 = system: BT-549
SK-OV-3 = system: SK-OV-3
MOLT-4 = system: MOLT-4
CCRF-CEM = system: CCRF-CEM
A549 = system: A549
OVCAR-3 = system: OVCAR-3
HOP-62 = system: HOP-62
RPMI-8226 = system: RPMI-8226
HL-60 = system: HL-60
NCI-H23 = system: NCI-H23
NCI-H226 = system: NCI-H226
786-0 = system: 786-0
COLO 205 = system: COLO 205
OVCAR-8 = system: OVCAR-8
UACC-62 = system: UACC-62
TK-10 = system: TK-10
MDA-MB-231 = system: MDA-MB-231
HCT-116 = system: HCT-116
EKVX = system: EKVX
NCI-H460 = system: NCI-H460
SNB-75 = system: SNB-75
SF-295 = system: SF-295
U-251 = system: U-251
MDA-MB-435 = system: MDA-MB-435
SK-MEL-5 = system: SK-MEL-5
CAKI-1 = system: CAKI-1
SW-620 = system: SW-620
OVCAR-4 = system: OVCAR-4
HOP-92 = system: HOP-92
Malme-3M = system: Malme-3M
KM12 = system: KM12
SF-539 = system: SF-539
K562 = system: K562
M14 = system: M14
UO-31 = system: UO-31
DU-145 = system: DU-145
NCI/ADR-RES = system: NCI/ADR-RES
UACC-257 = system: UACC-257
LOX IMVI = system: LOX IMVI
NCI-H522 = system: NCI-H522
PC-3 = system: PC-3
SNB-19 = system: SNB-19
HCT-15 = system: HCT-15
OVCAR-5 = system: OVCAR-5
IGROV-1 = system: IGROV-1
SK-MEL-2 = system: SK-MEL-2
ACHN = system: ACHN
A498 = system: A498
MDA-N = system: MDA-N
T47D = system: T47D
MCF7 = system: MCF7
HCC 2998 = system: HCC 2998
Hs-578T = system: Hs-578T

With CCOC(=O)NC(C(=O)OCC)(N1CCN(c2cc3c(cc2F)c(=O)c(C(=O)O)cn3CC)CC1)C(F)(F)F (centres undefined) the GI50 (SK-MEL-28) was 0.197 µM (active), the GI50 (SN12C) was > 100 µM (inactive) and the GI50 (RXF 393) was > 100 µM (inactive). The GI50 (SR) was > 100 µM (inactive), the GI50 (HT-29) was > 100 µM (inactive) and the GI50 (SF-268) was > 100 µM (inactive). The GI50 (BT-549) was > 100 µM (inactive), the GI50 (SK-OV-3) was > 100 µM (inactive) and the GI50 (MOLT-4) was > 100 µM (inactive). The GI50 (CCRF-CEM) was > 100 µM (inactive), the GI50 (A549) was > 100 µM (inactive) and the GI50 (OVCAR-3) was > 100 µM (inactive). The GI50 (HOP-62) was > 100 µM (inactive), the GI50 (RPMI-8226) was > 100 µM (inactive) and the GI50 (HL-60) was > 100 µM (inactive). For the same molecule, the GI50 (NCI-H23) was > 100 µM (inactive), the GI50 (NCI-H226) was > 100 µM (inactive) and the GI50 (786-0) was > 100 µM (inactive). For the same molecule, the GI50 (COLO 205) was > 100 µM (inactive), the GI50 (OVCAR-8) was 6.1 µM (inactive) and the GI50 (UACC-62) was > 100 µM (inactive). The GI50 (TK-10) was > 100 µM (inactive), the GI50 (MDA-MB-231) was > 100 µM (inactive) and the GI50 (HCT-116) was > 100 µM (inactive). The GI50 (EKVX) was 13.2 µM (inactive), the GI50 (NCI-H460) was > 100 µM (inactive) and the GI50 (SNB-75) was > 100 µM (inactive). For the same molecule, the GI50 (SF-295) was > 100 µM (inactive), the GI50 (U-251) was 58.1 µM (inactive) and the GI50 (MDA-MB-435) was 26.1 µM (inactive). For the same molecule, the GI50 (SK-MEL-5) was > 100 µM (inactive), the GI50 (CAKI-1) was > 100 µM (inactive) and the GI50 (SW-620) was > 100 µM (inactive). For the same molecule, the GI50 (OVCAR-4) was > 100 µM (inactive), the GI50 (HOP-92) was > 100 µM (inactive) and the GI50 (Malme-3M) was > 100 µM (inactive). The GI50 (KM12) was > 100 µM (inactive), the GI50 (SF-539) was > 100 µM (inactive) and the GI50 (K562) was > 100 µM (inactive). The GI50 (M14) was > 100 µM (inactive), the GI50 (UO-31) was > 100 µM (inactive) and the GI50 (DU-145) was > 100 µM (inactive). For the same molecule, the GI50 (NCI/ADR-RES) was > 100 µM (inactive), the GI50 (UACC-257) was > 100 µM (inactive) and the GI50 (LOX IMVI) was > 100 µM (inactive). The GI50 (NCI-H522) was > 100 µM (inactive), the GI50 (PC-3) was > 100 µM (inactive) and the GI50 (SNB-19) was > 100 µM (inactive). The GI50 (HCT-15) was over 100 µM, the GI50 (OVCAR-5) was > 100 µM (inactive) and the GI50 (IGROV-1) was > 100 µM (inactive). For the same molecule, the GI50 (SK-MEL-2) was > 100 µM (inactive), the GI50 (ACHN) was > 100 µM (inactive) and the GI50 (A498) was > 100 µM (inactive). For the same molecule, the GI50 (MDA-N) was > 100 µM (inactive), the GI50 (T47D) was > 100 µM (inactive) and the GI50 (MCF7) was > 100 µM (inactive). The GI50 (HCC 2998) was > 100 µM (inactive) and the GI50 (Hs-578T) was > 100 µM (inactive).
